Where a SMILES comes first, the peptide text is derived from it.

The first assay addresses HLA-A02.01 (Homo sapiens, UniProt P04439, D140Y/D185E/D98H/E176V/E277Q/G131W/G231S/I119V/I121R/I166T/I218V/L300P/L318F/N151K/N90K/P208A/P217A/Q86G/Q94H/R138H/R169H/T345S). In words: Class I MHC peptide binding affinity (displacement of radiolabeled reference peptide). Particulars: Observed Affinity (IC50; (nM)), allele A02.01. An outline of the steps: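 Radiolabeled reference peptide/MHCI complexes; test peptide titration, 2 d incubation; bound label remaining read by size-exclusion gel filtration.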
Take `CC[C@H](C)[C@H](NC(=O)[C@H](CCCCN)NC(=O)[C@H](Cc1ccc(O)cc1)NC(=O)[C@@H](NC(=O)[C@@H](NC(=O)[C@H](CC(=O)O)NC(=O)[C@H](CO)NC(=O)[C@H](CCSC)NC(=O)[C@@H](NC(=O)[C@@H](N)Cc1ccccc1)C(C)C)[C@@H](C)O)[C@@H](C)O)C(=O)O` (H-FVMSDTTYKI-OH; N-terminus and C-terminus assumed): the half-maximal inhibitory concentration (IC50) – broadly, the concentration that inhibits the measured activity by half – worked out at 62.4 nM.

Still in this assay, the particulars now being: allele A02.01; read-out: Observed Affinity (IC50; (nM)).
In the case of `CC(C)C[C@H](NC(=O)[C@H](C)N)C(=O)N[C@@H](CCC(N)=O)C(=O)N1CCC[C@H]1C(=O)N[C@@H](CC(C)C)C(=O)N[C@@H](CCC(N)=O)C(=O)N1CCC[C@H]1C(=O)N[C@@H](Cc1c[nH]cn1)C(=O)N[C@@H](C)C(=O)O` (H-ALQPLQPHA-OH; N-terminus and C-terminus assumed), the half-inhibitory concentration (IC50) stood at 604 nM. Take `CC[C@H](C)[C@H](NC(=O)[C@H](CCSC)NC(=O)[C@@H](NC(=O)CNC(=O)[C@@H](NC(=O)[C@@H](N)CCC(N)=O)[C@@H](C)O)C(C)C)C(=O)N[C@@H](CS)C(=O)N[C@@H](C)C(=O)N[C@@H](Cc1ccc(O)cc1)C(=O)N[C@@H](CC(C)C)C(=O)O` (H-QTGVMICAYL-OH; N-terminus and C-terminus assumed): the IC50 came to 9760 nM.

Turning to `CC(C)C[C@H](NC(=O)[C@@H](N)CC(C)C)C(=O)NCC(=O)N[C@@H](CCCNC(=N)N)C(=O)N[C@@H](CC(N)=O)C(=O)N[C@@H](CO)C(=O)N[C@@H](Cc1ccccc1)C(=O)N[C@@H](CCC(=O)O)C(=O)N[C@H](C(=O)N[C@@H](CS)C(=O)O)C(C)C` (H-LLGRNSFEVC-OH; N-terminus and C-terminus assumed), the IC50 was 2080 nM. In the case of `CC[C@H](C)[C@H](N)C(=O)N[C@@H](CC(C)C)C(=O)N[C@H](C(=O)N[C@@H](CCCNC(=N)N)C(=O)N[C@@H](CCCCN)C(=O)N[C@@H](C)C(=O)N[C@@H](CCSC)C(=O)N[C@H](C(=O)N[C@H](C(=O)O)C(C)C)[C@@H](C)O)[C@@H](C)CC` (H-ILIRKAMTV-OH; N-terminus and C-terminus assumed), the IC50 was 19.5 nM. In the case of `CSCC[C@H](NC(=O)[C@H](CCC(=O)O)NC(=O)[C@H](CC(C)C)NC(=O)[C@H](CC(C)C)NC(=O)[C@H](CC(C)C)NC(=O)[C@H](CC(=O)O)NC(=O)[C@H](CC(N)=O)NC(=O)[C@H](CC(C)C)NC(=O)[C@@H]1CCCN1)C(=O)N[C@@H](CC(C)C)C(=O)O` (H-PLNDLLLEML-OH; N-terminus and C-terminus assumed), the 50% inhibitory concentration (IC50) worked out at 12000 nM.

On to `CC(C)C[C@H](NC(=O)[C@H](C)NC(=O)[C@H](CCC(=O)O)NC(=O)[C@H](CCC(N)=O)NC(=O)[C@@H](NC(=O)[C@H](CC(=O)O)NC(=O)[C@H](Cc1ccccc1)NC(=O)[C@H](CCC(=O)O)NC(=O)[C@H](CCC(N)=O)NC(=O)[C@@H](N)CC(C)C)C(C)C)C(=O)O` [LQEFDVQEAL] (H-LQEFDVQEAL-OH), for which the IC50 amounted to 50300 nM. Consider `CSCC[C@H](NC(=O)[C@H](CC(C)C)NC(=O)[C@H](CCCCN)NC(=O)[C@@H](N)CCCCN)C(=O)N[C@@H](CC(C)C)C(=O)N[C@@H](CC(C)C)C(=O)N[C@@H](CCCNC(=N)N)C(=O)N[C@@H](CC(C)C)C(=O)N[C@@H](CC(N)=O)C(=O)N[C@@H](CC(C)C)C(=O)O` (H-KKLMLLRLNL-OH; N-terminus and C-terminus assumed), for which the IC50 amounted to 289 nM. For the compound `CSCC[C@H](N)C(=O)N[C@@H](C)C(=O)N[C@@H](CC(C)C)C(=O)N[C@@H](CC(N)=O)C(=O)N[C@@H](CO)C(=O)N[C@@H](CCC(=O)O)C(=O)N[C@@H](C)C(=O)N[C@@H](CC(C)C)C(=O)N[C@@H](CO)C(=O)N[C@H](C(=O)O)C(C)C`, the half-inhibitory concentration (IC50) is 129 nM. As to `CC(C)C[C@H](NC(=O)[C@@H](N)CC(C)C)C(=O)N[C@@H](CCC(N)=O)C(=O)N[C@@H](CCC(=O)O)C(=O)N[C@@H](Cc1ccccc1)C(=O)N[C@@H](CC(=O)O)C(=O)N[C@H](C(=O)N[C@@H](CCC(N)=O)C(=O)N[C@@H](CCC(=O)O)C(=O)N[C@@H](C)C(=O)O)C(C)C` (H-LLQEFDVQEA-OH), the IC50 worked out at 45 nM.

Turning to `CC(C)C[C@H](NC(=O)[C@H](C)N)C(=O)N[C@@H](Cc1ccccc1)C(=O)N[C@@H](Cc1ccccc1)C(=O)N[C@@H](Cc1ccccc1)C(=O)N[C@@H](Cc1ccccc1)C(=O)N[C@@H](Cc1ccccc1)C(=O)N[C@@H](CCC(=O)O)C(=O)N[C@H](C(=O)O)[C@@H](C)O` (H-ALFFFFFET-OH; N-terminus and C-terminus assumed), the IC50 is 471 nM. As for `CC(C)C[C@H](NC(=O)[C@@H]1CCCN1C(=O)[C@@H]1CCCN1C(=O)[C@@H](NC(=O)[C@H](CC(=O)O)NC(=O)[C@H](CCC(=O)O)NC(=O)[C@@H]1CCCN1C(=O)[C@H](CC(C)C)NC(=O)[C@@H](N)CC(C)C)[C@@H](C)O)C(=O)O` (H-LLPEDTPPL-OH; N-terminus and C-terminus assumed), the half-maximal inhibitory concentration (IC50) is 2.8 nM. In the case of `CC(C)C[C@H](NC(=O)[C@H](Cc1c[nH]cn1)NC(=O)[C@H](Cc1c[nH]c2ccccc12)NC(=O)[C@H](CC(C)C)NC(=O)[C@@H](N)CCCNC(=N)N)C(=O)N[C@@H](CC(C)C)C(=O)N[C@@H](CC(C)C)C(=O)N[C@@H](CCC(N)=O)C(=O)N[C@H](C(=O)N[C@H](C(=O)O)[C@@H](C)O)C(C)C` (H-RLWHLLLQVT-OH; N-terminus and C-terminus assumed), the IC50 was found to be 50.9 nM. As to `CSCC[C@H](NC(=O)[C@H](Cc1c[nH]cn1)NC(=O)[C@@H](NC(=O)[C@H](CC(C)C)NC(=O)[C@@H](NC(=O)[C@@H]1CCCN1C(=O)[C@H](C)NC(=O)[C@H](CC(C)C)NC(=O)[C@H](C)N)[C@@H](C)O)[C@@H](C)O)C(=O)N[C@@H](CC(C)C)C(=O)O` (H-ALAPTLTHML-OH; N-terminus and C-terminus assumed), the IC50 was found to be 39 nM.

A further assay deals with T1, HLA-A02.01 (Homo sapiens, UniProt P04439, D140Y/D185E/D98H/E176V/E277Q/G131W/G231S/I119V/I121R/I166T/I218V/N151K/N90K/P208A/P217A/Q86G/Q94H/R138H/R169H).
T1 construct: made in house; host or cells: E. coli
In words: Class I MHC peptide binding stability (pMHC-I dissociation, 125I-labeled light chain). As to conditions: HLA Allele A02.01; time for half of the complexes to dissociate at 37° C.
Take `CC(C)C[C@H](NC(=O)[C@@H](N)CCCCN)C(=O)N[C@H](C(=O)N[C@H](C(=O)N[C@H](C(=O)NCC(=O)N[C@@H](C)C(=O)N[C@@H](CC(=O)O)C(=O)NCC(=O)N[C@H](C(=O)O)C(C)C)C(C)C)C(C)C)C(C)C`: the “Measured stability” value worked out at 0.9 h.

Staying with this assay, now noted: allele A02.01.
As to `CSCC[C@H](NC(=O)[C@H](CS)NC(=O)[C@H](CO)NC(=O)[C@H](CO)NC(=O)[C@H](CC(N)=O)NC(=O)[C@H](CS)NC(=O)[C@H](CCSC)NC(=O)[C@@H](N)Cc1ccc(O)cc1)C(=O)NCC(=O)N[C@@H](CO)C(=O)O` (H-YMCNSSCMGS-OH; N-terminus and C-terminus assumed), the “Stability (T1/2 (h))” value stood at 0.8 h. The same measure, in the same setting: under `CSCC[C@H](NC(=O)[C@H](CCC(N)=O)NC(=O)[C@H](CC(C)C)NC(=O)[C@@H](NC(=O)[C@@H](N)CCCCN)C(C)C)C(=O)N[C@@H](CC(=O)O)C(=O)N[C@@H](Cc1ccccc1)C(=O)N[C@@H](CC(C)C)C(=O)N[C@H](C(=O)O)C(C)C` (H-KVLQMDFLV-OH; N-terminus and C-terminus assumed) stands 6.4 h; under `CC[C@H](C)[C@H](NC(=O)[C@@H](N)C(C)C)C(=O)N[C@H](C(=O)N[C@@H](CCC(=O)O)C(=O)N[C@@H](Cc1ccc(O)cc1)C(=O)N[C@@H](CS)C(=O)N[C@@H](CS)C(=O)N[C@@H](Cc1ccc(O)cc1)C(=O)NCC(=O)O)[C@@H](C)CC` (H-VIIEYCCYG-OH; N-terminus and C-terminus assumed), 0.5 h. Take `CC(C)C[C@H](NC(=O)[C@@H](N)CCCCN)C(=O)N[C@H](C(=O)N[C@H](C(=O)N[C@H](C(=O)NCC(=O)N[C@@H](C)C(=O)N[C@@H](CC(=O)O)C(=O)NCC(=O)N[C@H](C(=O)O)C(C)C)C(C)C)C(C)C)C(C)C`: the “Stability (T1/2 (h))” value stood at 0.9 h. Consider `CC(C)C[C@H](NC(=O)[C@H](CO)NC(=O)[C@H](CS)NC(=O)[C@H](CCC(=O)O)NC(=O)[C@H](Cc1c[nH]c2ccccc12)NC(=O)[C@H](CC(C)C)NC(=O)[C@H](C)NC(=O)[C@H](CC(C)C)NC(=O)[C@H](CC(C)C)NC(=O)[C@@H](N)Cc1ccccc1)C(=O)O`, for which the “Stability (T1/2 (h))” value is 10.8 h.

The values above are taken from US20220282217A1, “COMPOSITIONS AND METHODS FOR PREPARING T CELL COMPOSITIONS AND USES THEREOF” (priority 2019, published 2022).
